# Measurements reported in US7728036B2, “Methods for delivery of catecholic butanes for treatment of tumors” (priority 2003, dated 2010).
# Entries after “also recorded” stand apart in the source; their conditions may differ.
# How the values were obtained:
# [1] = Tissue distribution after long-term (14 weeks) oral feeding of M4N (HPLC); format: in vivo, mice; details: 14 weeks continuous oral feeding of M4N food balls
# Protocol: Tissue Distribution and Toxicity Analysis Following Short-Term and Long-Term Oral Feeding. For short-term feeding experiments, 30 mg of M4N dissolved in 300 μL castor oil was orally administered to each of 6 mice. At 2 h, 4 h, and 8 h post-administration time points, 2 mice were sacrificed, the organs and blood were collected, and the M4N extracted and quantitated as described below. In long-term feeding experiments, mice were fed food balls consisting of M4N dissolved in corn oil and Basal Mix (Harlan Teklad; Madison, Wis.; Cat. # TD 02273) for 14 weeks. Food balls weighed 9 g and contained 242 mg M4N each. Two mice, one male and one female, were reserved for long-term drug retention studies; and fourteen mice, both male and female, were used for long-term drug toxicity studies. At the end of feeding, mice were sacrificed, the organs and blood were collected, and the M4N extracted and quantitated as described below.
# M4N Extraction and HPLC Analysis Following Oral Feeding. Organs and blood were harvested from M4N-fed mice, then frozen overnight at −80° C. Prior to freezing, gastro-intestinal organs (stomach, small intestine, colon) were cut open longitudinally and washed thoroughly with PBS to remove any contents. The following day, organs were cut into small pieces on dry ice with a razor blade, dried in a Speed-vac, then crushed into a rough powder using a mortar and pestle. Samples were extracted overnight in 100% ethanol with shaking. Samples were centrifuged and the supernatant collected. Pellets were extracted two more times in 100% ethanol overnight with shaking. The pooled ethanol extracts were evaporated on bench top for several days, then re-extracted with ethyl acetate, and dried completely in a Speed-vac. The dried samples were then analyzed quantitatively by HPLC and M4N was identified by mass spectroscopy using pure M4N as a standard.
# HPLC Quantitation of M4N. Samples from a single mouse at each time point were sent to KP Pharmaceuticals (Bloomington, Ind.) for HPLC analysis. HPLC conditions were described as follows: 35%:0.1% TFA in H2O, 65%=“CAN.” The M4N standard was prepared by diluting 10.01 mg M4N in 100 mL of CAN, then sonicating for 5 min. (2002 ng/injection). The samples were prepared by adding 400 μL EtOH and sonicating for 2 min. or until complete dissolution was achieved. The injection volume for the samples was 100 μL.
# The objective of the long-term feeding experiments was to measure the steady state levels of M4N in various mouse organs following continuous oral administration for 14 weeks. Food balls weighing approximately 9 g and containing approximately 280 mg M4N were continually fed to wild-type mice for 14 weeks. A single 9 g food ball is consumed by a single mouse in about 3 days, which translates to […] of M4N consumed or administered daily. […] Between 350 μg and 900 μg M4N per gram tissue was measured in the GI tract organs and the spleen; 15 μg/g to 30 μg/g M4N was measured in the lungs, pancreas, seminal vesicles, blood, and fat; and 5 μg/g to 13 μg/g M4N was measured in the heart, liver, kidneys, and bladder.
# [2] = system: MCF-7 breast adenocarcinoma cells; assay: Xenograft assay of human tumors in athymic nude mice, MCF-7; format: in vivo
# Description: (§1) Xenograft Assay of Human Tumors.
# (§2) Control mice received vehicle only.
# [3] = system: HT-29 colorectal carcinoma cells; assay: Xenograft assay of human tumors in athymic nude mice, HT-29; format: in vivo
# Description: as §1, §2
# [4] = system: LNCaP prostate carcinoma cells; assay: Xenograft assay of human tumors in athymic nude mice, LNCaP; format: in vivo, mouse
# Description: as §1, §2
# head and neck cancer = assay: Ex-US clinical study in head and neck cancer, daily M4N with or without G4N followed by surgical resection; format: in vivo, human
# [5] = Toxicokinetic analysis of M4N serum concentration in beagle dogs; details: dog, in vivo
# Protocol: Blood samples from the CET group animals were collected via the jugular vein on Study Day (SD) 1, SD 3, SD 6, and SD 8 at the following timepoints: predose, 0.25, 0.5, 1, 2, 4, 8, and 16 hours following the completion of the approximate 4-hour infusion.
# Blood samples from the DMSO group animals were collected via the cephalic vein on SD 1, SD 3, SD 6, and SD 8 at the following timepoints: predose, 0.25, 0.5, 1, 2, 4, 8, and 16 hours following the final injection dose of M4N-DMSO.
# Blood samples collected from both groups of animals were processed for plasma and serum for TK analysis.
# The plasma and serum samples were sent to MedTox Laboratories, the Sponsor's designated laboratory for TK analysis. TK analysis of M4N plasma and serum concentration-time data was performed using a validated method (M200406) by MedTox Laboratories and analyzed by noncompartmental methods to obtain estimates of toxicokinetic parameters (where data allow), but not necessarily limited to, Cmax, Tmax and AUC.
# [6] = system: various human tumor cells; assay: Cell culture analyses of tumor cell growth; format: cell-based
# [7] = system: human tumor xenografts (MCF-7, Hep3B, HT-29, LNCaP); details: all four tumor types, of 39 M4N-treated tumors, 21 days
# Protocol: Xenograft Assay of Human Tumors. Athymic nude mice were implanted subcutaneously in their flanks with 2.5×10^6 Hep3B cells, 2×10^6 LNCaP cells, 1×10^7 HT-29 cells, or 2×10^6 MCF-7 cells.
# M4N was dissolved in 6% Cremaphor EL, 6% ethanol, 88% saline as described in Loganzo et al. (2003). Mice received a single daily 100 μL i.p. injection containing 2 mg of M4N for 3 weeks. The control mice received an equal volume of the vehicle. Tumors were measured in two perpendicular dimensions (L and W) once every seven days, and the tumor volumes were calculated according to the following formula: V=(L×W/2)^3×π/6. The results from the individual mice were plotted as average tumor volume versus time. Statistical significance of the mean differences in tumor volume was assessed by Student's t-test.
# Athymic nude mice were implanted s.c. in each flank with MCF-7 breast adenocarcinoma cells, Hep3B hepatocellular carcinoma cells, HT-29 colorectal carcinoma cells, and LNCaP prostate carcinoma cells. Most mice developed tumors in both flanks, although some developed a single tumor. When tumors attained a mean diameter of 7-8 mm, mice received for three weeks a single daily i.p. injection containing 2 mg of M4N dissolved in 100 uL Cremaphor-ethanol based solvent. Control mice received vehicle only. Tumors were measured in two perpendicular dimensions (L and W) once every seven days, and tumor volumes were calculated according to the formula: V=(L×W/2)^3×π/6.
# [8] = system: HPV-16 transformed immortal mouse epithelial cells (C3); details: intratumor injection; cited from earlier work
# [9] = MCF-7, of 10 M4N-treated tumors, 21 days i.p. treatment
# [10] = HT-29, of 11 M4N-treated tumors, 21 days i.p. treatment
# [11] = LNCaP, of 11 M4N-treated tumors, 21 days i.p. treatment
smiles,measurement,setting,value
"COc1ccc(C[C@@H](C)[C@@H](C)Cc2ccc(OC)c(OC)c2)cc1OC [M4N, meso-1,4-bis(3,4-dimethoxyphenyl)-2,3-dimethylbutane]",M4N,[1]; Bladder,6.24 µg/g
same,M4N,[1]; Blood,23.13 µg/g
same,M4N,[1]; Caecum,440.23 µg/g
same,M4N,[1]; Fat,17.41 µg/g
same,M4N,[1]; Heart,12.62 µg/g
same,M4N,[1]; Kidneys,8.33 µg/g
same,M4N,[1]; Lg. Intestine,350.88 µg/g
same,M4N,[1]; Liver,5.89 µg/g
same,M4N,[1]; Lungs,23.09 µg/g
same,M4N,[1]; Pancreas,28.81 µg/g
same,M4N,[1]; Seminal Vesicles,16.79 µg/g
same,M4N,[1]; Small Intestine,906.27 µg/g
same,M4N,[1]; Spleen,302.78 µg/g
same,M4N,[1]; Stomach,409.27 µg/g
same,Reduction in mean tumor volume versus control,"[2]; MCF-7, after 21 days systemic M4N treatment",74%
same,DOTV: number of tumors with decrease in volume from the original tumor volume,[2]; [9],7
same,IOTV: number of tumors with increase in volume from the original tumor volume,[2]; [9],3
same,"Tumor Volume Increase (%) - 21 Days Treatment, M4N-Treatment","[2]; MCF-7 xenograft, 2 mg M4N i.p. daily for 3 weeks",84%
same,Ratio of Mean M4N-Treated Tumor Size to Control Tumor Size,"[2]; MCF-7 xenograft, 2 mg M4N i.p. daily, 21 days",25.5%
same,Reduction in mean tumor volume versus control,"[3]; HT-29, after 21 days systemic M4N treatment",70%
same,DOTV: number of tumors with decrease in volume from the original tumor volume,[3]; [10],3
same,IOTV: number of tumors with increase in volume from the original tumor volume,[3]; [10],8
same,"Tumor Volume Increase (%) - 21 Days Treatment, M4N-Treatment","[3]; HT-29 xenograft, 2 mg M4N i.p. daily for 3 weeks",787%
same,Ratio of Mean M4N-Treated Tumor Size to Control Tumor Size,"[3]; HT-29 xenograft, 2 mg M4N i.p. daily, 21 days",29.4%
same,"Tumor Volume Increase (%) - 21 Days Treatment, M4N-Treatment","[4]; LNCaP xenograft, 2 mg M4N i.p. daily for 3 weeks",25%
same,Ratio of Mean M4N-Treated Tumor Size to Control Tumor Size,"[4]; LNCaP xenograft, 2 mg M4N i.p. daily, 21 days",46.3%
same,Reduction in mean tumor volume versus control,"[4]; LNCaP, after 21 days systemic M4N treatment",53%
same,DOTV: number of tumors with decrease in volume from the original tumor volume,[4]; [11],9
same,IOTV: number of tumors with increase in volume from the original tumor volume,[4]; [11],2
same,Growth of LNCaP xenograft tumors,[4]; systemic oral administration of M4N,effectively suppresses the growth
same,Dose delivered without drug-related toxicity,"head and neck cancer; for up to five days, with or without concomitant G4N 20 mg per day",≤ 20 mg per day
same,Patients remaining disease free,"head and neck cancer; long-term follow ups, M4N with or without G4N, then surgical resection",64%
same,Efficacy in terms of induction of necrosis,head and neck cancer; patients that completed the treatment,over 80%
same,Blood levels of M4N achieved with minimal toxicity,[5],"up to 14,000 ng/ml"
same,Growth of human tumor cells in culture,[6],effectively prevent the growth
same,DOTV: number of tumors with decrease in volume from the original tumor volume,[7],21
same,IOTV: number of tumors with increase in volume from the original tumor volume,[7],18
same,IOTV: share of tumors with increase in volume,[7],(46%)
same,Suppression of tumor growth / tumoricidal activity,[8],substantial tumoricidal activity; also recorded: some evidence of suppression of tumor growth
